Assay results published in patent publication US20100324058A1 (Obschestvo S Organichennoi Otvetsttvennoctiyou "Bionika", priority 2007, published 2010).

Tests used:
experimental animals = conditions: lethal dose of argothroban after clinical testing; cited from earlier work
[1] = cited from earlier work
thrombin [2] = target: T1, thrombin (Homo sapiens, UniProt P00734); assay: Effect of test compounds on thrombin activity: hydrolysis rate of chromogenic (Chromozim TH) or fluorogenic (BOC-Ala-Pro-Arg-AMC) substrate; assay type: biochemical; conditions: for inhibition at 0.0025 µM: concentration of compound 2.5 nM; for inhibition at 0.005 µM: concentration of compound 5 nM; for inhibition at 0.025 µM: concentration of compound 25 nM; for inhibition at 0.05 µM: concentration of compound 50 nM
Description: The effect of the synthesized substances on thrombin activity was studied by measuring the hydrolysis rate of specific low molecular weight substrates with thrombin in an aqueous buffering solution in the absence and presence of these compounds. One of these substrates was chromogenic substrate Chromozim TH (CTH): N-(p-Tosyl)-Gly-Pro-Arg-pNA [Sonder S A, Fenton J W 2nd. Thrombin Specificity with Tripeptide Chromogenic Substrates: Comparison of Human and Bovine Thrombins with and without Fibrinogen Clotting Activities. Clin. Chem., 1986, 32(6):934-937]. Another substrate that was used in a number of experiments was fluorogenic substrate BOC-Ala-Pro-Arg-AMC (S), wherein BOC is butoxycarbonyl residue, and AMC is 7-amino-4-methylcoumaryl [Kawabata S, Miura T, Morita T, Kato H, Fujikawa K, Ivanaga S, Takada K, Kimura T, Sakakibara S. Highly Sensitive peptide-4-methylcoumaryl-7-amide Substrates for Blood-Clotting Proteases and Trypsin. Eur. J. Biochem., 1988, 172(1):17-25].
The holes of a common 96-hole board were filled with a buffer containing 140 mM of NaCl, 20 mM of HEPES, and 0.1% polyethylene glycol (Mw=6,000), at pH=8.0. […] When a chromogenic substrate was used, accumulation of the colored reaction product—para-nitroaniline—was followed on a spectrophotometric Molecular Devices board reader (Thermomax, U.S.), measuring the increase in optical density on the 405 nm wavelength. […] The reaction kinetics was registered on a fluorometric Titertek Fluoroskan board reader (LabSystem, Finland).
The initial reaction rate was measured as the tangent of the kinetic curve inclination angle on a straight section (first 10 to 15 minutes of registration). Reaction rate without an inhibitor was a ssumed to be 100%. The mean arithmetic value of two independent measurements was used as the end result.

thrombin [3] = target: T1, thrombin; conditions: literature, PDB complex; cited from earlier work
[4] = concentration of compound 2.5 mcM
[5] = concentration of compound 0.25 mcM
[6] = concentration of compound 0.5 mcM

inhibition at 0.0025 µM (thrombin [2]) [%] | inhibition at 0.005 µM (thrombin [2]) [%] | inhibition at 0.05 µM (thrombin [2]) [%] | Structure (SMILES) | inhibition at 0.025 µM (thrombin [2]) [%] | Hydrolysis rate inhibition, % (thrombin [2]; [4]) [%] | Hydrolysis rate inhibition, % (thrombin [2]; [5]) [%] | Hydrolysis rate inhibition, % (thrombin [2]; [6]) [%] | other results
– | – | – | CC1CNc2c(cccc2S(=O)(=O)N[C@@H](CCCNC(=N)N)C(=O)N2CC[C@@H](C)C[C@@H]2C(=O)O)C1 (stereo partly shown) [Argatroban] | – | – | – | – | LD50 (experimental animals): 475 mg/kg; T1/2 in plasma [1]: 36 min
24 | 44 | 88 | Cc1cc(OCC[n+]2ccc(N)cc2)cc(OS(=O)(=O)c2ccc(Cl)cc2)c1 [HC_039s_IOC] | 73 | 98 | – | – | –
4 | 19 | 75 | Cc1cc(OCCSC(=N)N)cc(OS(=O)(=O)c2ccccc2S(C)(=O)=O)c1 [HC_040s_IOC] | 66 | 100 | – | – | –
– | – | – | Nc1cc[n+](CCOc2cccc(NS(=O)(=O)c3ccccc3)c2)cc1 [HC_041s_IOC] | – | – | 62 | 75 | Hydrolysis rate inhibition, % (thrombin [2]; concentration of compound 0.1 mcM): 56%; Hydrolysis rate inhibition, % (thrombin [2]; concentration of compound 1.75 mcM): 88%; Hydrolysis rate inhibition, % (thrombin [2]; concentration of compound 3.75 mcM): 90%; Hydrolysis rate inhibition, % (thrombin [2]; concentration of compound 25 mcM): 95%; Hydrolysis rate inhibition, % (thrombin [2]; concentration of compound 250 mcM): 99%
– | – | – | Cc1cc(OCC[n+]2ccsc2N)cc(OS(=O)(=O)c2ccccc2Cl)c1.[I-] [HC_045s_IOC] | – | 87 | 18 | 42 | Hydrolysis rate inhibition, % (thrombin [2]; concentration of compound 0.125 mcM): 10%; Hydrolysis rate inhibition, % (thrombin [2]; concentration of compound 1.25 mcM): 66%
– | – | – | N=c1ccc2cc3ccc(N)cc3[nH]c-2c1 [Proflavin] | – | – | – | – | Kd (thrombin [3]): ~10 µM

Structure (SMILES) | inhibition at 0.0025 µM (thrombin [2]) [%] | inhibition at 0.005 µM (thrombin [2]) [%] | inhibition at 0.05 µM (thrombin [2]) [%] | inhibition at 0.025 µM (thrombin [2]) [%] | Hydrolysis rate inhibition, % (thrombin [2]; [4]) [%] | Hydrolysis rate inhibition, % (thrombin [2]; [5]) [%] | Hydrolysis rate inhibition, % (thrombin [2]; [6]) [%] | other results
Cc1cc(OCCSC(=N)N)cc(OS(=O)(=O)c2ccccc2Cl)c1 [HC_046s_IOC] | 39 | 59 | – | 92 | – | – | – | inhibition at 0.00125 µM (thrombin [2]; concentration of compound 1.25 nM): 18%; inhibition at 0.0125 µM (thrombin [2]; concentration of compound 12.5 nM): 77%
Cc1cc(OCC[n+]2ccc(N)nc2)cc(OS(=O)(=O)c2ccccc2)c1.[I-] [HC_047s_IOC] | – | – | 14 | 10 | 90 | 36 | 49 | inhibition at 0.01 µM (thrombin [2]; concentration of compound 10 nM): 8%; Hydrolysis rate inhibition, % (thrombin [2]; concentration of compound 1.85 mcM): 84%
